The text below walks through data of patent publication US20160361309A1, “METHODS OF TREATING CANCER PATIENTS RESPONDING TO EZH2 INHIBITOR GSK126” (GLAXOSMITHKLINE INTELLECTUAL PROPERTY (NO.2) LIMITED, priority 2014, published 2016).

The test system of test [1] is A687V EZH2 mutant SUP-B8 cell line. Kind of test: 6-day cell proliferation assay (CellTiter-Glo), SUP-B8. It is filed as cell-based, human. The method, then: (§1) FIG. 4. A687V EZH2 mutant ALL is highly dependent on EZH2 activity. A, Sensitivity of ALL cell lines to EZH2 inhibition with GSK126. Cells were treated with a 20-point 2-fold dilution series of GSK126 (range 36 μM-70 pM) for 6 days and cell growth was measured using Cell Titer-Glo (Promega). Data are represented as the concentration of GSK126 required to inhibit 50% of growth (growth IC50). B, Western blot analysis of H3K27me3, H3K27me2, H3K27me1, and total histone H3 following treatment of NALM-6 or SUP-B8 cell lines with varying concentrations of GSK126 for 72 hours.
(§2) FIG. 5. […] Temporal kinetics of GSK126-induced growth inhibition (A and C) and caspase 3/7 activation (B and D) in NALM-6 (A and B) and SUP-B8 (C and D) over a 6 day time course using Cell Titer-Glo or Caspase-Glo 3/7 (Promega), respectively.
The SUP-B8 acute lymphoblastic leukemia cell line which harbors a heterozygous A687V EZH2 mutation was kindly provided by Dr. Ronald Levy (Stanford University) and was maintained in RPMI-1640 media (MediaTech) supplemented with 10% fetal bovine serum (FBS) (Sigma-Aldrich). All other cell lines were obtained from either ATCC or DSMZ and maintained in the recommended cell culture media.
(§3) Cells were evaluated for sensitivity to GSK126 in a 6-day proliferation assay as described previously (McCabe et al., 2012b). Briefly, cells were seeded into 384 well plates at a density that permitted proliferation for 6 days. Cells were then treated in duplicate with a 20-point 2-fold dilution series of GSK126 or 0.147% DMSO. After incubation with compound for 6 days, cell proliferation was evaluated using CellTiter-Glo (Promega) according to the manufacturer's specifications. Data were fit with a 4-parameter equation to generate a concentration response curve and to determine the concentration of GSK126 required to inhibit 50% of growth (gIC50).
(Cellular ATP, detected with luciferase, serves as a proxy for viable cell number.)

For test [2], the system named is EZH2 WT cell lines (B cell ALL panel). Kind of test: 6-day cell proliferation assay (CellTiter-Glo), EZH2 WT B cell ALL cell lines. It is filed as cell-based. Conditions: Homo sapiens, 144 h, 6 days, range over cell lines, read-out: growth IC50 values. How it is done:
as §1, §3

Test [3] deals with NALM-6 cells. Kind of test: Growth inhibition time course (CellTiter-Glo), NALM-6. Format: cell-based, human. The note with it: NALM-6 (EZH2 WT), out to 6 days. The method, then:
as §2, §3

Test [4] concerns SUP-B8 cells. Kind of test: Caspase 3/7 assay (Caspase-Glo 3/7), SUP-B8. It is filed as cell-based, human. Conditions: SUP-B8, beginning on day 5.
Source text: as §2
(§4) For detection of caspase-3/7 activity, Caspase-Glo 3/7 (Promega) was utilized according to the manufacturer's directions. Values were normalized to CellTiter Glo (Promega) levels at each time point and expressed as a percentage of vehicle treated control.

Test [5] relates to NALM-6 cells. The test can be described thus: Caspase 3/7 assay (Caspase-Glo 3/7), NALM-6. Format: cell-based, human. The note with it: NALM-6 (EZH2 WT), out to 6 days.
Source text: as §2, §4

For test [6], the system named is H3K27me3 in SUP-B8 cells. The test can be described thus: Western blot analysis of H3K27 methylation after GSK126 treatment. It is filed as cell-based, human. The note with it: SUP-B8 compared with the most sensitive EZH2 WT cell line NALM-6, 72 hours. How it is done: as §1
Cell lysate preparation and western blotting were performed as previously described (McCabe et al., 2012a). Antibodies utilized included: EZH2 (BD Transduction Labs), histone H3 (Abcam), H3K27me1 (ActiveMotif), H3K27me2 (Cell Signaling Technology), H3K27me3 (Cell Signaling Technology), EED (Santa Cruz), SUZ12 (Cell Signaling Technology), or Actin (Sigma). Histone methylation antibody specificity was previously confirmed using full-length recombinant methylated histones harboring mono-, di-, or tri-methylation at H3K4, H3K9, H3K27, H3K36, and H3K79 (McCabe et al., 2012a).
Background: Immunoblotting shows a protein as a band on a membrane.

The subject of test [7] is SUP-B8 cells. Kind of test: Gene expression profiling (Affymetrix U133 Plus 2.0), SUP-B8. It is filed as cell-based, human. Conditions: SUP-B8, 500 nM GSK126, 72 hours. How it is done:
(§5) FIG. 6. Activation of gene expression in A687V EZH2, but not WT EZH2, cells. A, Gene expression profiling of SUP-B8 and NALM-6 cells treated for 72 hours with 0.1% DMSO or 500 nM GSK126. […] Green, lower expression. Red, higher expression.
(§6) SUP-B8 and NALM-6 cells (2×10^5/well) were seeded into six-well tissue culture plates 24 hours before treatment with 0.1% DMSO or 500 nM GSK126 for 72 hours. Cells were collected into Trizol reagent (Invitrogen) and total RNA was isolated via phenol:chloroform extraction and the RNeasy kit (Qiagen) according to the manufacturer's instructions. Total RNA was labeled and hybridized to Affymetrix Human Genome U133 Plus 2.0 oligonucleotide microarrays arrays according to the manufacturer's instructions (Affymetrix, Santa Clara, Calif., USA). CEL files were processed and differentially expressed probe sets were determined as described previously (McCabe et al., 2012b). Briefly, significant probe sets were identified after filtering for detection, an average fold-change >2 or <-2, and p-values adjusted for multiple testing correction by FDR (Benjamini Hochberg)<0.1.

Test [8] concerns NALM-6 cells. Kind of test: Gene expression profiling (Affymetrix U133 Plus 2.0), NALM-6. Format: cell-based, human. The note with it: NALM-6, 500 nM GSK126, 72 hours. The method, then:
as §5, §6

Test [9] has as its system Y641 and A677 EZH2 mutant DLBCL cell lines. The note with it: many Y641 and A677 EZH2 mutant DLBCL cell lines; previously shown; cited from earlier work.

As to `CC[C@H](C)n1cc(C)c2c(C(=O)NCc3c(C)cc(C)[nH]c3=O)cc(-c3ccc(N4CCNCC4)nc3)cc21` [GSK126], the IC50 in [1] (Homo sapiens, 144 h, SUP-B8 (heterozygous A687V EZH2), 6 days, CellTiter-Glo, read-out: dose required to inhibit 50% of cell proliferation (growth IC50)) was 441 nM; in [2], 2500 to 7800 nM. For the same compound, the “growth inhibition over 6 day time course” value is listed as “dose-dependent growth inhibition” in [1] (SUP-B8, after 4 days of treatment, maximal on day 6) and “little growth inhibition” in test [3]. For the same compound, the “doses at which cell number losses were evident” value in [1] (SUP-B8, day 6) is reported as “above 100 nM”. Besides, the “caspase 3/7 activity” value in test [4] is listed as “increased in a dose-dependent fashion”. The “activation of caspases 3 or 7” value in [5] is “no activation of caspases 3 or 7”. Also, the “demethylation of H3K27me3” value in [6] is on record as “comparable, or slightly reduced, demethylation of H3K27me3”. The up-regulated probes in test [7] is listed as 643; in test [8], 35. For the same compound, the down-regulated probes in test [8] stood at 10. For the same compound, the inhibition of proliferation result in test [9] is “effectively inhibit the proliferation”.
